Tests used:
[1] = system: HBV replication in HepAD38 cells; experiment: Anti-HBV replication assay in HepAD38 cells (QPCR of extracellular HBV DNA); format: cell-based, HBV (genotype D, serotype ayw); conditions: Hepatitis B virus, 168 h, 7 days incubation, extracellular HBV DNA by QPCR, read-out: Anti-HBV EC50
Method in brief: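 Stably transfected HepG2-derived HepAD38 cells express HBV (genotype D, ayw) once tetracycline is withdrawn. Compounds act for 7 days, after which secreted HBV DNA is quantified by QPCR relative to DMSO-treated wells.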

[2] = In vitro cytotoxicity assay (MTT cell viability) in HepG2 cells; format: cell-based, human; conditions: human
Method in brief: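 Using MTT conversion as the viability measure, HepG2 cells were incubated with compounds for 7 days (30 μM to 1.0 nM). Absorbance at 492 nm was normalized to vehicle and fitted to give CC50.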

Compound `Cc1noc([C@H](C)NC(=O)C(=O)c2c(Cl)c(C(=O)Nc3cnc(F)c(C)c3)c3n2CCC3)n1` [Example 736, (S)-6-chloro-N-(6-luoro-5-methylpyridin-3-yl)-5-(2-((1-(3-methyl-1,2,4-oxadiazol-5-yl)ethyl)amino)-2-oxoacetyl)-2,3-dihydro-1H-pyrrolizine-7-carboxamide] has an EC50 [1] of less than 50 nM and a CC50 at 7 days [2] of 5000 to 30000 nM.

Compound `Cc1c(C(=O)Nc2cccc(Cl)c2)c(C)n(C)c1C(=O)C(=O)NC(C)(C)CN1CCOCC1` [Example 601, N-(3-chlorophenyl)-1,2,4-trimethyl-5-(2-((2-methyl-1-morpholinopropan-2-yl)amino)-2-oxoacetyl)-1H-pyrrole-3-carboxamide] has an EC50 [1] of less than 50 nM and a CC50 at 7 days [2] greater than 30000 nM.

`Cc1cc(NC(=O)c2c(C)c(C(=O)C(=O)N[C@H]3c4ccccc4C[C@H]3O)n(C)c2C)ccc1F` [Example 260, N-(4-fluoro-3-methylphenyl)-5-(2-(((1S,2R)-2-hydroxy-2,3-dihydro-1H-inden-1-yl)amino)-2-oxoacetyl)-1,2,4-trimethyl-1H-pyrrole-3-carboxamide] gave an EC50 [1] of less than 50 nM and a CC50 at 7 days [2] of 5000 to 30000 nM.

Compound `Cc1cc(NC(=O)c2cc(C(=O)C(=O)NC(C)(C)C)n3c2CCC3)ccc1F` [Example 536, 5-(2-(tert-butylamino)-2-oxoacetyl)-N-(4-fluoro-3-methylphenyl)-2,3-dihydro-1H-pyrrolizine-7-carboxamide] has an EC50 [1] of less than 50 nM and a CC50 at 7 days [2] greater than 30000 nM.

For `Cc1c(C(=O)Nc2ccc(F)nc2)c(C)n(C)c1C(=O)C(=O)NC1C2CC3CC(C2)CC1C3` (stereo not shown) [Example 91, 5-(2-(((1r,3r)-adamantan-2-yl)amino)-2-oxoacetyl)-N-(6-fluoropyridin-3-yl)-1,2,4-trimethyl-1H-pyrrole-3-carboxamide], the EC50 [1] was less than 50 nM and the CC50 at 7 days [2] was greater than 30000 nM.

With `Cc1cc(NC(=O)c2c(C)c(C(=O)C(=O)N[C@@H]3C[C@H](O)[C@@H](O)[C@H]3O)n(C)c2C)ccc1F` [Example 712, N-(4-fluoro-3-methylphenyl)-1,2,4-trimethyl-5-(2-oxo-2-(((1R,2S,3R,4S)-2,3,4-trihydroxycyclopentyl)amino)acetyl)-1H-pyrrole-3-carboxamide] the EC50 [1] was less than 50 nM and the CC50 at 7 days [2] was greater than 30000 nM.

Compound `Cc1cc(NC(=O)c2c(C)c(C(=O)C(=O)N[C@@H](C(N)=O)C(C)C)n(C)c2C)ccc1F` [Example 105, (R)-5-(2-((1-amino-3-methyl-1-oxobutan-2-yl)amino)-2-oxoacetyl)-N-(4-fluoro-3-methylphenyl)-1,2,4-trimethyl-1H-pyrrole-3-carboxamide] has an EC50 [1] of less than 50 nM and a CC50 at 7 days [2] of 5000 to 30000 nM.

`Cc1cc(NC(=O)c2c(C)c(C(=O)C(=O)NC3CCOCC3)n(C)c2C)ccc1F` [Example 247, N-(4-fluoro-3-methylphenyl)-1,2,4-trimethyl-5-(2-oxo-2-((tetrahydro-2H-pyran-4-yl)amino)acetyl)-1H-pyrrole-3-carboxamide] gave an EC50 [1] of less than 50 nM and a CC50 at 7 days [2] of 5000 to 30000 nM.

With `Cc1cc(NC(=O)c2c(C)c(C(=O)C(=O)NC(C)C(F)(F)F)n(C)c2C)ccc1F` (stereo not shown) [Example 10, N-(4-fluoro-3-methylphenyl)-1,2,4-trimethyl-5-(2-oxo-2-((1,1,1-trifluoropropan-2-yl)amino)acetyl)-1H-pyrrole-3-carboxamide] the EC50 [1] was less than 50 nM and the CC50 at 7 days [2] was 5000 to 30000 nM.

Work on `Cc1cc(NC(=O)c2c(C)c(C(=O)C(=O)NC3(C)CC=CCC3)n(C)c2C)ccc1F` (stereo not shown) [Example 694, N-(4-fluoro-3-methylphenyl)-1,2,4-trimethyl-5-(2-((1-methylcyclohex-3-en-1-yl)amino)-2-oxoacetyl)-1H-pyrrole-3-carboxamide] yielded an EC50 [1] of less than 50 nM and a CC50 at 7 days [2] greater than 30000 nM.

`Cc1cc(NC(=O)c2c(C)c(C(=O)C(=O)NC3(C(N)=O)CCCC3)n(C)c2C)ccc1F` [Example 38, 5-(2-((1-carbamoylcyclopentyl)amino)-2-oxoacetyl)-N-(4-fluoro-3-methylphenyl)-1,2,4-trimethyl-1H-pyrrole-3-carboxamide] showed an EC50 [1] of less than 50 nM and a CC50 at 7 days [2] greater than 30000 nM.

Compound `Cc1cc(NC(=O)c2c(C)c(C(=O)C(=O)Nc3ccc(F)nc3)n(C)c2C)cnc1F` [Example 340, N-(6-fluoro-5-methylpyridin-3-yl)-5-(2-((6-fluoropyridin-3-yl)amino)-2-oxoacetyl)-1,2,4-trimethyl-1H-pyrrole-3-carboxamide] has an EC50 [1] of 500 to 1000 nM and a CC50 at 7 days [2] greater than 30000 nM.

In the case of `Cc1cc(NC(=O)c2c(C)c(C(=O)C(=O)N[C@@H]3CC[C@H](O)[C@H]3O)n(C)c2C)ccc1F` [Example 151, 5-(2-(((1R,2S,3S)-2,3-dihydroxycyclopentyl)amino)-2-oxoacetyl)-N-(4-fluoro-3-methylphenyl)-1,2,4-trimethyl-1H-pyrrole-3-carboxamide], the EC50 [1] is reported as less than 50 nM and the CC50 at 7 days [2] is reported as greater than 30000 nM.

Compound `Cc1c(C(=O)Nc2ccc(F)c(Cl)c2)c2n(c1C(=O)C(=O)NC1(CO)CC1)CCCC2` [Example 453, N-(3-chloro-4-fluorophenyl)-3-(2-((1-(hydroxymethyl)cyclopropyl)amino)-2-oxoacetyl)-2-methyl-5,6,7,8-tetrahydroindolizine-1-carboxamide] has an EC50 [1] of 50 to 499 nM and a CC50 at 7 days [2] greater than 30000 nM.

In the case of `CNC(=O)[C@@H](NC(=O)C(=O)c1c(C)c(C(=O)Nc2ccc(F)c(C)c2)c(C)n1C)[C@H](C)O` [Example 58, N-(4-fluoro-3-methylphenyl)-5-(2-(((2S,3S)-3-hydorxy-1-(methylamino)-1-oxobutan-2-yl)amino)-2-oxoacetyl)-1,2,4-trimethyl-1H-pyrrole-3-carboxamide], the EC50 [1] is reported as 500 to 1000 nM and the CC50 at 7 days [2] is reported as greater than 30000 nM.

Work on `O=C(NC1(CO)CC1)C(=O)c1c(Cl)c(C(=O)Nc2ccc(F)c(F)c2)c2n1CCCC2` [Example 502, 2-chloro-N-(3,4-difluorophenyl)-3-(2-((1-(hydroxymethyl)cyclopropyl)amino)-2-oxoacetyl)-5,6,7,8-tetrahydroindolizine-1-carboxamide] yielded an EC50 [1] of 50 to 499 nM and a CC50 at 7 days [2] greater than 30000 nM.

In the case of `Cc1cc(NC(=O)c2c(C)c(C(=O)C(=O)Nc3ncc(C(F)(F)F)s3)n(C)c2C)ccc1F` [Example 317, N-(4-fluoro-3-methylphenyl)-1,2,4-trimethyl-5-(2-oxo-2-((5-(trifluoromethyl)thiazol-2-yl)amino)acetyl)-1H-pyrrole-3-carboxamide], the EC50 [1] is reported as greater than 1000 nM and the CC50 at 7 days [2] is reported as 5000 to 30000 nM.

Compound `Cc1cc(NC(=O)c2c(C)c(C(=O)C(=O)NC(C)(C)C)n3c2CCCC3)ccc1F` [Example 434, 3-(2-(tert-butylamino)-2-oxoacetyl)-N-(4-fluoro-3-methylphenyl)-2-methyl-5,6,7,8-tetrahydroindolizine-1-carboxamide] has an EC50 [1] of less than 50 nM and a CC50 at 7 days [2] greater than 30000 nM.

`Cc1c(C(=O)Nc2ccc(F)c(F)c2)c2n(c1C(=O)C(=O)NC1(CO)CC1)CCCC2` [Example 463, N-(3,4-difluorophenyl)-3-(2-((1-(hydroxymethyl)cyclopropyl)amino)-2-oxoacetyl)-2-methyl-5,6,7,8-tetrahydroindolizine-1-carboxamide] gave an EC50 [1] of 50 to 499 nM and a CC50 at 7 days [2] of 5000 to 30000 nM.

For `Cc1cc(NC(=O)c2c(C)c(C(=O)C(=O)NC3CCc4nc(N)sc4C3)n(C)c2C)cnc1F` (stereo in doubt) [Example 138, (S)-5-(2-((2-amino-4,5,6,7-tetrahydrobenzo[d]thiazol-6-yl)amino)-2-oxoacetyl)-N-(6-fluoro-5-methylpyridin-3-yl)-1,2,4-trimethyl-1H-pyrrole-3-carboxamide], the EC50 [1] was less than 50 nM and the CC50 at 7 days [2] was 500 to 4990 nM.

`Cc1cc(NC(=O)c2cc(C(=O)C(=O)NC(C)(C)C)n(C)c2)ccc1F` [Example 1, 5-(2-(tert-butylamino)-2-oxocetyl)-N-(4-fluoro-3-methylphenyl)-1-methyl-1H-pyrrole-3-carboxamide] showed an EC50 [1] of less than 50 nM and a CC50 at 7 days [2] greater than 30000 nM.

For `Cc1cc(NC(=O)c2c(C)c(C(=O)C(=O)N[C@H](C(N)=O)[C@H](C)O)n(C)c2C)ccc1F` [Example 57, 5-(2-(((2S,3S)-1-amino-3-hydroxy-1-oxobutan-2-yl)amino)-2-oxoacetyl)-N-(4-fluoro-3-methylphenyl)-1,2,4-trimethyl-1H-pyrrole-3-carboxamide], the EC50 [1] was 50 to 499 nM and the CC50 at 7 days [2] was greater than 30000 nM.

`Cc1cc(NC(=O)c2c(C)c(C(=O)C(=O)NC(C)(C)C(F)(F)F)n(C)c2C)cnc1F` [Example 173, N-(6-fluoro-5-methylpyridin-3-yl)-1,2,4-trimethyl-5-(2-oxo-2-((1,1,1-trifluoro-2-methylpropan-2-yl)amino)acetyl)-1H-pyrrole-3-carboxamide] showed an EC50 [1] of less than 50 nM and a CC50 at 7 days [2] greater than 30000 nM.

Compound `Cc1cc(NC(=O)c2c(C)c(C(=O)C(=O)N[C@H]3C[C@H](O)C3)n(C)c2C)ccc1F` [Example 129, N-(4-fluoro-3-methylphenyl)-5-(22-(((1r,3r)-3-hydroxycyclobutyl)amino)-2-oxoacetyl)-1,2,4-trimethyl-1H-pyrrole-3-carboxamide] has an EC50 [1] of less than 50 nM and a CC50 at 7 days [2] greater than 30000 nM.

For `Cc1cc(NC(=O)c2c(C)c(C(=O)C(=O)NCCN3CCC(O)CC3)n(C)c2C)ccc1F` [Example 292, N-(4-fluoro-3-methylphenyl)-5-(2-((2-(4-hydroxypiperidin-1-yl)ethyl)amino)-2-oxoacetyl)-1,2,4-trimethyl-1H-pyrrole-3-carboxamide], the EC50 [1] was 50 to 499 nM and the CC50 at 7 days [2] was greater than 30000 nM.

Work on `Cc1cc(NC(=O)c2c(C)c(C(=O)C(=O)NCC3(O)CCOCC3)n(C)c2C)ccc1F` [Example 150, N-(4-fluoro-3-methylphenyl)-5-(2-(((4-hydroxytetrahydro-2H-pyran-4-yl)methyl)amino)-2-oxoacetyl)-1,2,4-trimethyl-1H-pyrrole-3-carboxamide] yielded an EC50 [1] of less than 50 nM and a CC50 at 7 days [2] greater than 30000 nM.

— patent publication US20190375708A1 (VenatoRx Pharmaceuticals, Inc., priority 2018, published 2019)
